Laboratory results reported in US11572399B2, “Long-acting GIP peptide analogues” (University of Copenhagen, priority 2017, dated 2023).
Peptide text beside a SMILES is read from it. * marks the point of attachment. C16 diacid = O=C(O)CCCCCCCCCCCCCCC(=O)*; Palmitoyl = CCCCCCCCCCCCCCCC(=O)*

Experiments:
human GIP receptor [1] = target: T1, human GIP receptor (Homo sapiens, UniProt P48546); test: cAMP accumulation assay, antagonism of a GIP-mediated cAMP response (50-80% of max); type: cell-based; conditions: transiently transfected COS-7 cells; Table 1 and text; read-out: cAMP antagonism nM (IC50, antagonistic potency)
T1 construct: host or cells: COS-7, transient transfection (calcium phosphate), cDNA in pCMV-Script
T1 sequence (P48546 22-466): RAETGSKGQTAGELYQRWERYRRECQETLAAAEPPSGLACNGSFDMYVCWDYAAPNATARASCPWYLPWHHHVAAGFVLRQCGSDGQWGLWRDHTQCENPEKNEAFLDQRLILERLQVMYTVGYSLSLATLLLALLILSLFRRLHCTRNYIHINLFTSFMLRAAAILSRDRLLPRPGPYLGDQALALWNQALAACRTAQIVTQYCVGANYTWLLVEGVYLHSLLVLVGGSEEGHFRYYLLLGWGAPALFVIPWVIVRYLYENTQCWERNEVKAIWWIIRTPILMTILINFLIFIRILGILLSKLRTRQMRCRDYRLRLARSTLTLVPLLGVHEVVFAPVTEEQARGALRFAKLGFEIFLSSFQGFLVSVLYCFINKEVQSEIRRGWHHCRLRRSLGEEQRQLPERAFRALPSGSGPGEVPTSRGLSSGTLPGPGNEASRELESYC
Method: The day after, the cells were washed twice with Hepes buffered saline (HBS) buffer and incubated with HBS and 1 mM 3-isobutyl-1-methylxanthine (IBMX) for 30 min at 37° C. […] The HitHunter™ cAMP XS assay (DiscoveRx) was carried out according to the manufacturer's instructions.

human GIP receptor [2] = target: T1, human GIP receptor; test: cAMP accumulation assay, agonism (ligand alone); type: cell-based; conditions: COS-7 cells, Table 1; for Emax: COS-7, intrinsic cAMP activity; for EC50: read-out: cAMP agonism nM (EC50)

`CCCCCCCCCCCC(=O)NCCCC[C@H](NC(=O)[C@H](CCC(N)=O)NC(=O)[C@H](C)NC(=O)[C@H](CC(C)C)NC(=O)[C@H](CC(C)C)NC(=O)[C@H](Cc1c[nH]c2ccccc12)NC(=O)[C@H](CC(N)=O)NC(=O)[C@@H](NC(=O)[C@H](Cc1ccccc1)NC(=O)[C@H](CC(=O)O)NC(=O)[C@H](CCC(N)=O)NC(=O)[C@H](CCC(N)=O)NC(=O)[C@H](Cc1c[nH]cn1)NC(=O)[C@@H](NC(=O)[C@H](CCCCN)NC(=O)[C@H](CC(=O)O)NC(=O)[C@H](CCSC)NC(=O)[C@H](C)NC(=O)[C@@H](NC(=O)[C@H](CO)NC(=O)[C@H](Cc1ccc(O)cc1)NC(=O)[C@H](CC(=O)O)NC(=O)[C@H](CO)NC(=O)[C@@H](NC(=O)[C@H](Cc1ccccc1)NC(=O)[C@@H](NC(=O)CNC(=O)[C@@H](N)CCC(=O)O)[C@@H](C)O)[C@@H](C)CC)[C@@H](C)CC)[C@@H](C)CC)C(C)C)C(N)=O` [AT103, [hGIP(3-30)NH2—C12/30]] was tested, and the IC50 (human GIP receptor [1]) was 121 nM and the Emax (human GIP receptor [2]) was 7%.

`CC[C@H](C)[C@H](NC(=O)[C@H](CO)NC(=O)[C@H](Cc1ccc(O)cc1)NC(=O)[C@H](CC(=O)O)NC(=O)[C@H](CO)NC(=O)[C@@H](NC(=O)[C@H](Cc1ccccc1)NC(=O)[C@@H](NC(=O)CNC(=O)[C@@H](N)CCC(=O)O)[C@@H](C)O)[C@@H](C)CC)C(=O)N[C@@H](C)C(=O)N[C@@H](CCSC)C(=O)N[C@@H](CC(=O)O)C(=O)N[C@@H](CCCCN)C(=O)N[C@H](C(=O)N[C@@H](Cc1c[nH]cn1)C(=O)N[C@@H](CCC(N)=O)C(=O)N[C@@H](CCC(N)=O)C(=O)N[C@@H](CCCCNC(=O)CCCCCCCCCCCCCCC(=O)O)C(=O)N[C@@H](Cc1ccccc1)C(=O)N[C@H](C(=O)N[C@@H](CC(N)=O)C(=O)N[C@@H](Cc1c[nH]c2ccccc12)C(=O)N[C@@H](CC(C)C)C(=O)N[C@@H](CC(C)C)C(=O)N[C@@H](C)C(=O)N[C@@H](CCC(N)=O)C(=O)N[C@@H](CCCCN)C(N)=O)C(C)C)[C@@H](C)CC` [AT310, [hGIP(3-30)NH2[D21K]-C16diacid/21]] (H-EGTFISDYSIAMDKIHQQK(C16 diacid)FVNWLLAQK-NH2; N-terminus assumed) was tested, and the IC50 (human GIP receptor [1]) was 49 nM and the Emax (human GIP receptor [2]) was 6.2%.

With `CC[C@H](C)[C@H](NC(=O)[C@H](CCCCN)NC(=O)[C@H](CC(=O)O)NC(=O)[C@H](CCSC)NC(=O)[C@H](CCCCNC(=O)CCCCCCCCCCCCCCC(=O)O)NC(=O)[C@@H](NC(=O)[C@H](CO)NC(=O)[C@H](Cc1ccc(O)cc1)NC(=O)[C@H](CC(=O)O)NC(=O)[C@H](CO)NC(=O)[C@@H](NC(=O)[C@H](Cc1ccccc1)NC(=O)[C@@H](NC(=O)CNC(=O)[C@@H](N)CCC(=O)O)[C@@H](C)O)[C@@H](C)CC)[C@@H](C)CC)C(=O)N[C@@H](Cc1c[nH]cn1)C(=O)N[C@@H](CCC(N)=O)C(=O)N[C@@H](CCC(N)=O)C(=O)N[C@@H](CC(=O)O)C(=O)N[C@@H](Cc1ccccc1)C(=O)N[C@H](C(=O)N[C@@H](CC(N)=O)C(=O)N[C@@H](Cc1c[nH]c2ccccc12)C(=O)N[C@@H](CC(C)C)C(=O)N[C@@H](CC(C)C)C(=O)N[C@@H](C)C(=O)N[C@@H](CCC(N)=O)C(=O)N[C@@H](CCCCN)C(N)=O)C(C)C` [AT304, [hGIP(3-30)NH2[A13K]-C16diacid/13]] (H-EGTFISDYSIK(C16 diacid)MDKIHQQDFVNWLLAQK-NH2; N-terminus assumed) the IC50 (human GIP receptor [1]) was 199 nM and the “cAMP agonism Emax” value (human GIP receptor [2]; intrinsic cAMP activity) was “no ag”.

With `CC[C@H](C)[C@H](NC(=O)[C@H](CO)NC(=O)[C@H](Cc1ccc(O)cc1)NC(=O)[C@H](CC(=O)O)NC(=O)[C@H](CO)NC(=O)[C@@H](NC(=O)[C@H](Cc1ccccc1)NC(=O)[C@@H](NC(=O)CNC(=O)[C@@H](N)CCC(=O)O)[C@@H](C)O)[C@@H](C)CC)C(=O)N[C@@H](C)C(=O)N[C@@H](CCSC)C(=O)N[C@@H](CC(=O)O)C(=O)N[C@@H](CCCCN)C(=O)N[C@H](C(=O)N[C@@H](Cc1c[nH]cn1)C(=O)N[C@@H](CCC(N)=O)C(=O)N[C@@H](CCC(N)=O)C(=O)N[C@@H](CC(=O)O)C(=O)N[C@@H](Cc1ccccc1)C(=O)N[C@H](C(=O)N[C@@H](CC(N)=O)C(=O)N[C@@H](Cc1c[nH]c2ccccc12)C(=O)N[C@@H](CC(C)C)C(=O)N[C@@H](CC(C)C)C(=O)N[C@@H](C)C(=O)N[C@@H](CCCCNC(=O)CCCCCCCCCCCCCCC(=O)O)C(=O)N[C@@H](CCCCN)C(N)=O)C(C)C)[C@@H](C)CC` [AT318, [hGIP(3-30)NH2[Q29K]-C16diacid/29]] (H-EGTFISDYSIAMDKIHQQDFVNWLLAK(C16 diacid)K-NH2; N-terminus assumed) the IC50 (human GIP receptor [1]) was 224 nM, the Emax (human GIP receptor [2]) was 10.8% and the EC50 (human GIP receptor [2]) was 131 nM.

Compound `CCCCCCCCCCCCCCCCCC(=O)NCCCC[C@H](NC(=O)[C@H](CC(=O)O)NC(=O)[C@H](CCSC)NC(=O)[C@H](C)NC(=O)[C@@H](NC(=O)[C@H](CO)NC(=O)[C@H](Cc1ccc(O)cc1)NC(=O)[C@H](CC(=O)O)NC(=O)[C@H](CO)NC(=O)[C@@H](NC(=O)[C@H](Cc1ccccc1)NC(=O)[C@@H](N)[C@@H](C)O)[C@@H](C)CC)[C@@H](C)CC)C(=O)N[C@H](C(=O)N[C@@H](Cc1c[nH]cn1)C(=O)N[C@@H](CCC(N)=O)C(=O)N[C@@H](CCC(N)=O)C(=O)N[C@@H](CC(=O)O)C(=O)N[C@@H](Cc1ccccc1)C(=O)N[C@H](C(=O)N[C@@H](CC(N)=O)C(=O)N[C@@H](Cc1c[nH]c2ccccc12)C(=O)N[C@@H](CC(C)C)C(=O)N[C@@H](CC(C)C)C(=O)N[C@@H](C)C(=O)N[C@@H](CCC(N)=O)C(=O)N[C@@H](CCCCN)C(N)=O)C(C)C)[C@@H](C)CC` [AT128, [hGIP(5-30)NH2—C18/16]] has an IC50 (human GIP receptor [1]) of 114 nM and an Emax (human GIP receptor [2]) of 25%.

For `CC[C@H](C)[C@H](NC(=O)[C@H](CO)NC(=O)[C@H](Cc1ccc(O)cc1)NC(=O)[C@H](CC(=O)O)NC(=O)[C@H](CO)NC(=O)[C@@H](NC(=O)[C@H](CCCCNC(=O)CCCCCCCCCCCCCCC(=O)O)NC(=O)[C@@H](NC(=O)CNC(=O)[C@@H](N)CCC(=O)O)[C@@H](C)O)[C@@H](C)CC)C(=O)N[C@@H](C)C(=O)N[C@@H](CCSC)C(=O)N[C@@H](CC(=O)O)C(=O)N[C@@H](CCCCN)C(=O)N[C@H](C(=O)N[C@@H](Cc1c[nH]cn1)C(=O)N[C@@H](CCC(N)=O)C(=O)N[C@@H](CCC(N)=O)C(=O)N[C@@H](CC(=O)O)C(=O)N[C@@H](Cc1ccccc1)C(=O)N[C@H](C(=O)N[C@@H](CC(N)=O)C(=O)N[C@@H](Cc1c[nH]c2ccccc12)C(=O)N[C@@H](CC(C)C)C(=O)N[C@@H](CC(C)C)C(=O)N[C@@H](C)C(=O)N[C@@H](CCC(N)=O)C(=O)N[C@@H](CCCCN)C(N)=O)C(C)C)[C@@H](C)CC` [AT297, [hGIP(3-30)NH2[F6K]-C16diacid/6]], the IC50 (human GIP receptor [1]) was 603 nM and the Emax (human GIP receptor [2]) was 19%.

Work on `CCCCCCCCCCCCCCCC(=O)NCCCC[C@H](NC(=O)[C@@H](NC(=O)[C@H](CCCCN)NC(=O)[C@H](CC(=O)O)NC(=O)[C@H](CCSC)NC(=O)[C@H](C)NC(=O)[C@@H](NC(=O)[C@H](CO)NC(=O)[C@H](Cc1ccc(O)cc1)NC(=O)[C@H](CC(=O)O)NC(=O)[C@H](CO)NC(=O)[C@@H](NC(=O)[C@H](Cc1ccccc1)NC(=O)[C@@H](N)[C@@H](C)O)[C@@H](C)CC)[C@@H](C)CC)[C@@H](C)CC)C(=O)N[C@@H](CCC(N)=O)C(=O)N[C@@H](CCC(N)=O)C(=O)N[C@@H](CC(=O)O)C(=O)N[C@@H](Cc1ccccc1)C(=O)N[C@H](C(=O)N[C@@H](CC(N)=O)C(=O)N[C@@H](Cc1c[nH]c2ccccc12)C(=O)N[C@@H](CC(C)C)C(=O)N[C@@H](CC(C)C)C(=O)N[C@@H](C)C(=O)N[C@@H](CCC(N)=O)C(=O)N[C@@H](CCCCN)C(N)=O)C(C)C` [AT145, [hGIP(5-30)NH2[H18K]-C16/18]] (H-TFISDYSIAMDKIK(Palmitoyl)QQDFVNWLLAQK-NH2; N-terminus assumed) yielded an IC50 (human GIP receptor [1]) of 66 nM, an Emax (human GIP receptor [2]) of 16% and an EC50 (human GIP receptor [2]) of 33 nM.
